Results: patent publication US11530206B2, “Phenylaminopyrimidine amide autophagy inhibitors and methods of use thereof” (Deciphera Pharmaceuticals, LLC, priority 2019, dated 2022)

Key:
ULK2 kinase = molecular target: T1, ULK2 kinase (Homo sapiens, UniProt Q8IYT8); assay: Biochemical assay for ULK2 (coupled pyruvate kinase/lactate dehydrogenase assay); conditions: 9.7 nM ULK2 (residues 1-306, GST and His tag), myelin basic protein, 1 mM ATP; read-out: ULK2.2
T1 construct: purchased Eurofins 14-772
Experimental: Example 132. Biochemical Assay for ULK2 (SEQ. ID NO: 3)
Activity of ULK2 kinase was determined spectroscopically using a coupled pyruvate kinase/lactate dehydrogenase assay that continuously monitors the ATP hydrolysis-dependent oxidation of NADH (e.g., Schindler et al. Science (2000) 289: 1938-1942). Assays were conducted in 384-well plates (100 uL final volume) using 9.7 nM ULK2 (Eurofins CAT #14-772), 0.25 mg/mL myelin basic protein, 1.5 units pyruvate kinase, 2.1 units lactate dehydrogenase, 1 mM phosphoenol pyruvate, 0.28 mM NADH and 1 mM ATP in assay buffer (100 mM Tris, pH 7.5, 15 mM MgCl2, 0.5 mM DTT, 0.1% octyl-glucoside, 0.002% (w/v) BSA, and 0.002% Triton X-100). Inhibition of ULK2 was measured by adding serial diluted test compound (final assay concentration of 1% DMSO). A decrease in absorption at 340 nm was monitored continuously for 6 hours at 30° C. on a multi-mode microplate reader (BioTek). The reaction rate was calculated using the 2-3 h time frame. The reaction rate at each concentration of compound was converted to percent inhibition using controls (i.e. reaction with no test compound and reaction with a known inhibitor) and IC50 values were calculated by fitting a four-parameter sigmoidal curve to the data using Prism (GraphPad software).

ULK1 kinase [1] = molecular target: T2, ULK1 kinase (Homo sapiens, UniProt O75385); assay: Biochemical assay for ULK1.2 (coupled pyruvate kinase/lactate dehydrogenase assay); conditions: 19 nM ULK1 (residues 1-314, His tag), myelin basic protein, 1 mM ATP
T2 construct: purchased Eurofins 14-959
T2 sequence (O75385 with tags, fused parts or gaps): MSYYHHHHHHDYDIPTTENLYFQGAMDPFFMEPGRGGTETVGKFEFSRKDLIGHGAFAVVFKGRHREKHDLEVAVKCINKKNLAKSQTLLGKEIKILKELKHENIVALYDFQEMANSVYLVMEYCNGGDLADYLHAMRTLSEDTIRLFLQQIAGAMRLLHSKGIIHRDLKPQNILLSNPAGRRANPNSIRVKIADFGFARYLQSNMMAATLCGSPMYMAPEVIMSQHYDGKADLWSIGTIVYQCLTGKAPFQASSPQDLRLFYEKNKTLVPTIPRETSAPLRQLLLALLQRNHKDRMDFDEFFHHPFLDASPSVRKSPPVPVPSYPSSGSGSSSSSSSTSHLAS
Experimental: Biochemical Assay for ULK1.2 (SEQ. ID NO: 1)
Inhibition of ULK1 was measured by adding serial diluted test compound (final assay concentration of 1% DMSO). A decrease in absorption at 340 nm was monitored continuously for 6 hours at 30° C. on a multi-mode microplate reader (BioTek). The reaction rate was calculated using the 2-3 h time frame. The reaction rate at each concentration of compound was converted to percent inhibition using controls (i.e. reaction with no test compound and reaction with a known inhibitor) and IC50 values were calculated by fitting a four-parameter sigmoidal curve to the data using Prism (GraphPad software).

ULK kinase [2] = assay: pATG13 levels of mutant KRas A549 cells after treatment with ULK inhibitors in combination with trametinib (ELISA); format: cell-based, human; conditions: A549 (KRAS mutant) lung cancer cells, 250 nM trametinib, overnight, pS318-ATG13
Method in brief: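 Lysates with phosphatase/protease inhibitors assayed by pATG13 ELISA, A450 minus A540 background and blank-corrected. % ATG13 phosphorylation versus DMSO controls fitted to IC50.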

ULK kinase [3] = assay: pATG13 levels of mutant KRas MiaPaCa-2 cells after treatment with ULK inhibitors in combination with trametinib (ELISA); format: cell-based, human; conditions: MiaPaCa-2 pancreatic cancer cells, 250 nM trametinib, overnight, pS318-ATG13
Method in brief: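 MiaPaCa-2 cells in DMEM with 10% FBS and 2.5% horse serum were pretreated with trametinib or DMSO, then given a test-compound dose response overnight at 37° C. Lysates were assayed for phospho-ATG13 by ELISA (A450 minus A540 background, blank-corrected). % phosphorylation was calculated relative to controls and fitted to IC50.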

LRRK2 kinase = molecular target: T3, LRRK2 kinase (Homo sapiens, UniProt Q5S007); assay: Biochemical assay for LRRK2 (coupled pyruvate kinase/lactate dehydrogenase assay); conditions: 26.4 nM LRRK2 (residues 970-2528), peptide substrate, 1 mM ATP
T3 construct: purchased Thermo Fisher
Experimental: Example 138. Biochemical Assay for LRRK2 (SEQ. ID NO: 4)
Activity of LRRK2 kinase was determined spectroscopically using a coupled pyruvate kinase/lactate dehydrogenase assay that continuously monitors the ATP hydrolysis-dependent oxidation of NADH (e.g., Schindler et al. Science (2000) 289: 1938-1942). Assays were conducted in 384-well plates (100 μL final volume) using 26.4 nM LRRK2 (Thermo Fisher), 0.1 mM peptide substrate ([…] (SEQ ID NO: 6)), 1.5 units pyruvate kinase, 2.1 units lactate dehydrogenase, 1 mM phosphoenol pyruvate, 0.28 mM NADH and 1 mM ATP in assay buffer (100 mM Tris, pH 7.5, 15 mM MgCl2, 0.5 mM DTT, 0.004% (w/v) BSA, and 0.004% Triton X-100). Inhibition of LRRK2 was measured by adding serial diluted test compound (final assay concentration of 1% DMSO). A decrease in absorption at 340 nm was monitored continuously for 6 hours at 30° C. on a multi-mode microplate reader (BioTek). The reaction rate was calculated using the 2-3 h time frame. The reaction rate at each concentration of compound was converted to percent inhibition using controls (i.e. reaction with no test compound and reaction with a known inhibitor) and IC50 values were calculated using software routines in Prism (GraphPad software).

ULK1 kinase [4] = molecular target: T4, ULK1 kinase (Homo sapiens, UniProt O75385, E37A/K38A); assay: Biochemical assay for ULK1.3 (coupled pyruvate kinase/lactate dehydrogenase assay, peptide substrate); conditions: 0.1 nM ULK1 (residues 1-283), 1 mM ATP
T4 construct: purchased Beryllium
T4 sequence (O75385 1-283 E37A/K38A): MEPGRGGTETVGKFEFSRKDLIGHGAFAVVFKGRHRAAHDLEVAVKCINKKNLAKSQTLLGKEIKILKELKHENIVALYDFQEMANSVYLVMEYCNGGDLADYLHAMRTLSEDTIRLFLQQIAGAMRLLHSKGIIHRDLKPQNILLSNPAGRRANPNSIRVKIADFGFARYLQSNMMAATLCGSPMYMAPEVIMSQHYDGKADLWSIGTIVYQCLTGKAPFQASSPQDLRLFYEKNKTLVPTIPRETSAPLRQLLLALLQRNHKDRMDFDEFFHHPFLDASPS
Method in brief: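 ULK1.3 activity was followed by continuous decrease in 340 nm absorbance over 6 h at 30 °C with 1% DMSO final. Rates were taken from the 2–3 h window and converted to percent inhibition against no-compound and known-inhibitor controls. IC50 values came from curve fitting.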

T1 sequence (Q8IYT8 with tags, fused parts or gaps): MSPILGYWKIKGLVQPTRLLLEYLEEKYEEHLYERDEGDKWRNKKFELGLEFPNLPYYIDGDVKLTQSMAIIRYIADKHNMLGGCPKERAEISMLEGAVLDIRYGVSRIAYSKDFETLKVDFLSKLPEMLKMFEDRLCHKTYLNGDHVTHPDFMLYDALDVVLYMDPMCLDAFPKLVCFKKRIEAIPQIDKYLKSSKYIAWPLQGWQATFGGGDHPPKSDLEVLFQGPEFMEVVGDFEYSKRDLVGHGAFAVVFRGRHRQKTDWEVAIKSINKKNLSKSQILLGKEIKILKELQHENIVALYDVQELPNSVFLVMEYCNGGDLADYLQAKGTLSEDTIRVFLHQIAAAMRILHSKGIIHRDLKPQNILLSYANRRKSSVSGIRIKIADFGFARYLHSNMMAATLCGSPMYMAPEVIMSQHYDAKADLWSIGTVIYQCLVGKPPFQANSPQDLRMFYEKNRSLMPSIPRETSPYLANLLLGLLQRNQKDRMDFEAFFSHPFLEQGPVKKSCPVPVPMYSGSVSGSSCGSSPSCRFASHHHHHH
T3 sequence (Q5S007 with tags, fused parts or gaps): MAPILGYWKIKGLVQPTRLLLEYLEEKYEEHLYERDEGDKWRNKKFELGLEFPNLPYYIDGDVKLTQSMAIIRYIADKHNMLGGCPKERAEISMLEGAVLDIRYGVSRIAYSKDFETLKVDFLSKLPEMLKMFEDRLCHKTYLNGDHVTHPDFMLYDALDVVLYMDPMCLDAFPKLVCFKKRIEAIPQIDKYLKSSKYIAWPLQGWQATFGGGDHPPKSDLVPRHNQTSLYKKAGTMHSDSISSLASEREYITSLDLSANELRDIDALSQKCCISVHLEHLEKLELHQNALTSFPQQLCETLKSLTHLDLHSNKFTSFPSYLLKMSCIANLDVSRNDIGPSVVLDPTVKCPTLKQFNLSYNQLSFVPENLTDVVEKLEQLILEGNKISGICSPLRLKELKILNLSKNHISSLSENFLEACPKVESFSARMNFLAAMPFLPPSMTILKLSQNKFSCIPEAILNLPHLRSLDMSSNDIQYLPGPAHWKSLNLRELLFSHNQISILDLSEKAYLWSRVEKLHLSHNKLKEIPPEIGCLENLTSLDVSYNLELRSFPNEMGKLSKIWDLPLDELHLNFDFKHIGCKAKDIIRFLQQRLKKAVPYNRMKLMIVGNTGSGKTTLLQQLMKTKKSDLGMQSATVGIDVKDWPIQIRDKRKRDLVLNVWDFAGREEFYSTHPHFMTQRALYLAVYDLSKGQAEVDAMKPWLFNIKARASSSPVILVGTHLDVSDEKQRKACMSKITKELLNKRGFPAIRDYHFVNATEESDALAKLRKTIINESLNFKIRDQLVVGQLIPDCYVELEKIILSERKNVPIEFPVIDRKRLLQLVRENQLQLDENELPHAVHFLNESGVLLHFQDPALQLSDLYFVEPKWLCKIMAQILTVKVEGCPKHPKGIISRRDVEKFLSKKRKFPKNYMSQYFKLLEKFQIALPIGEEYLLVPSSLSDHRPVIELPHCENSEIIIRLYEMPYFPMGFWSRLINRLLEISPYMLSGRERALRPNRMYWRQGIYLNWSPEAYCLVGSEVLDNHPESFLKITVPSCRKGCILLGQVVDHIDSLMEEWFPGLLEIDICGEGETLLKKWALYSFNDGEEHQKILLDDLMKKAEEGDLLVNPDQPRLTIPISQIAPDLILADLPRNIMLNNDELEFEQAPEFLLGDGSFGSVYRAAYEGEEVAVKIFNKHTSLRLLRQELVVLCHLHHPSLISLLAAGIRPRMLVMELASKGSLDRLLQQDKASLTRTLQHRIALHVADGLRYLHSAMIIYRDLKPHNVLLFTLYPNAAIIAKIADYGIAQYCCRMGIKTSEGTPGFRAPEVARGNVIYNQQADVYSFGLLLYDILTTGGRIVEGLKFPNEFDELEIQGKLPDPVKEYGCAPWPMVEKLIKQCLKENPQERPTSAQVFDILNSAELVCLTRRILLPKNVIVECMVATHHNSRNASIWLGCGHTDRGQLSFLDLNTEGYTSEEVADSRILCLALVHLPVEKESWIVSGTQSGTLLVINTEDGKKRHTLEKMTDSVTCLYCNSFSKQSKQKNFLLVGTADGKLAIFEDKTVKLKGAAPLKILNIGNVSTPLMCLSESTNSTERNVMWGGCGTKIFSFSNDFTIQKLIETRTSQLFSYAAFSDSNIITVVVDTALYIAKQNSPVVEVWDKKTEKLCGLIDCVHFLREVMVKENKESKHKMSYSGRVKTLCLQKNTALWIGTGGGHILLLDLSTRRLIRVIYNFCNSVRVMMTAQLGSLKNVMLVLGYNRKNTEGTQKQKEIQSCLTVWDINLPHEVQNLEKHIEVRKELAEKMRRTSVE

Row | Structure (SMILES) | IC50 (ULK2 kinase) [nM] | IC50 (ULK1 kinase [1]) [nM] | IC50 (ULK kinase [2]) [nM] | IC50 (ULK kinase [3]) [nM] | IC50 (LRRK2 kinase) [nM] | IC50 (ULK1 kinase [4]) [nM]
1 | Cc1cc(N2CCN(C)CC2)ncc1Nc1cc(NCCCN2CCCCC2=O)c(C(F)(F)F)cn1 [Example 95] | > 500 | 100 to 500 |  |  |  | 
2 | O=C1COCCCN1CCCNc1nc(Nc2ccc(N3CCOCC3)cc2C2CC2)ncc1C(F)(F)F [Example 51] | > 500 | 100 to 500 |  |  | 1 to 100 | 
3 | CCc1cc(N2CCOCC2)ccc1Nc1ncc(Cl)c(NCCCN2CCCOCC2=O)n1 [Example 57] | > 500 | > 500 | > 600 |  |  | 
4 | CCc1cc(N2CCOCC2)ccc1Nc1ncc(C(F)(F)F)c(NCCCN2CCCOCC2=O)n1 [Example 50] | > 500 | 100 to 500 | > 600 | > 600 | 1 to 100 | 
5 | CCc1cc(N2CCOCC2)ccc1Nc1ncc(C(F)(F)F)c(NCCCN2CCOCCC2=O)n1 [Example 72] | > 500 | 25 to 100 |  | 300 to 600 |  | 
6 | Cc1cc(-c2cnn(C)c2)ccc1Nc1ncc(C(F)(F)F)c(NCCCN2CCCCC2=O)n1 [Example 108] | > 500 | > 500 |  |  | 1 to 100 | 
7 | O=C1COCCCN1CCCNc1nc(Nc2ccc(N3CCOCC3)cc2C2CC2)ncc1Cl [Example 59] | > 500 | > 500 |  |  |  | 
8 | Cc1cc(C2CCNCC2)ccc1Nc1ncc(C(F)(F)F)c(NCCCN2CCCCC2=O)n1 [Example 7] | 100 to 500 | 25 to 100 | > 600 |  |  | 
9 | Cc1cc(N2CCN(C)CC2)ncc1Nc1ncc(C(F)(F)F)c(NCCCN2CCCCC2=O)n1 [Example 91] | 100 to 500 | 25 to 100 | 100 to 300 | > 600 |  | 25 to 100
10 | Cc1cc(-c2cn(C)cn2)ccc1Nc1ncc(C(F)(F)F)c(NCCCN2CCOCCC2=O)n1 [Example 109] | > 500 | > 500 | > 600 |  | 1 to 100 | 
11 | Cc1cc(N2CCN(C3CC3)CC2)ccc1Nc1ncc(C(F)(F)F)c(NCCCN2CCCCC2=O)n1 [Example 22] | 100 to 500 | 1 to 25 |  |  |  | 
12 | Cc1cc(N2CCOCC2)ncc1Nc1ncc(C(F)(F)F)c(NCCCN2CCCCC2=O)n1 [Example 90] | > 500 | > 500 |  |  | 300 to 600 | 
13 | Cc1cc(N2CCOCC2)ncc1Nc1cc(NCCCN2CCCCC2=O)c(C(F)(F)F)cn1 [Example 96] | > 500 | > 500 |  |  |  | 
14 | O=C1CCOCCN1CCCNc1nc(Nc2ccc(N3CCOCC3)cc2C2CC2)ncc1C(F)(F)F [Example 71] | > 500 | 1 to 25 |  | > 600 |  | 

The next lines start with the values.

Row | IC50 (ULK2 kinase) [nM] | IC50 (ULK1 kinase [1]) [nM] | IC50 (ULK kinase [2]) [nM] | IC50 (ULK kinase [3]) [nM] | IC50 (LRRK2 kinase) [nM] | IC50 (ULK1 kinase [4]) [nM] | Structure (SMILES)
15 | 25 to 100 | 1 to 25 | 100 to 300 | 100 to 300 |  |  | CCN1CCN(c2ccc(Nc3ncc(C(F)(F)F)c(NCCCN4CCCCC4=O)n3)c(C)c2)CC1 [Example 19]
16 | 1 to 25 | 1 to 25 | 300 to 600 | 100 to 300 |  |  | Cc1cc(N2CCN(C3CCC3)CC2)ccc1Nc1ncc(C(F)(F)F)c(NCCCN2CCCCC2=O)n1 [Example 21]
17 | 100 to 500 | 25 to 100 | 100 to 300 |  |  |  | Cc1cc(C2CCN(C)CC2)ccc1Nc1ncc(C(F)(F)F)c(NCCCN2CCCCC2=O)n1 [Example 8]
18 | 1 to 25 | 1 to 25 | 10 to 100 | 10 to 100 |  |  | CCN1CCN(c2ccc(Nc3ncc(C(F)(F)F)c(NCCCN4CCCCC4=O)n3)c(C3CC3)c2)CC1 [Example 13]
19 | 100 to 500 | 25 to 100 | 300 to 600 | 300 to 600 |  |  | CCc1cc(N2CCN(C)CC2)ccc1Nc1ncc(C(F)(F)F)c(NCCCN2CCCC2=O)n1 [Example 4]
20 | 25 to 100 |  |  |  | 100 to 300 |  | CCc1cc(N2CCN(C)CC2)ccc1Nc1ncc(C(F)(F)F)c(NCCCN2CCOCCC2=O)n1 [Example 66]
21 | 25 to 100 | 100 to 500 |  |  | 1 to 100 |  | Cc1cc(N2CCN(CCF)CC2)ccc1Nc1ncc(C(F)(F)F)c(NCCCN2CCCCC2=O)n1 [Example 18]
22 | 1 to 25 | 1 to 25 | 10 to 100 | 10 to 100 |  |  | CCc1cc(N2CCN(CC)CC2)ccc1Nc1ncc(C(F)(F)F)c(NCCCN2CCCCC2=O)n1 [Example 12]
23 | 1 to 25 | 1 to 25 |  |  |  |  | O=C1CCCCN1CCCNc1nc(Nc2ccc(N3CCCNCC3)cc2)ncc1C(F)(F)F [Example 9, 1-(3-((2-((4-(1,4-diazepan-1-yl)phenyl)amino)-5-(trifluoromethyl)pyrimidin-4-yl)amino)propyl)piperidin-2-one]
24 | 25 to 100 | 1 to 25 | 10 to 100 | 100 to 300 |  |  | Cc1cc(N2CCN(C)CC2)ccc1Nc1ncc(C(F)(F)F)c(NCCCN2CCOCCC2=O)n1 [Example 65]
25 | 1 to 25 | 1 to 25 | 100 to 300 | 100 to 300 |  |  | CCN1CCCN(c2ccc(Nc3ncc(C(F)(F)F)c(NCCCN4CCCCC4=O)n3)cc2)CC1 [Example 10, 1-(3-((2-((4-(4-ethyl-1,4-diazepan-1-yl)phenyl)amino)-5-(trifluoromethyl)pyrimidin-4-yl)amino)propyl)piperidin-2-one]
